Consider 23 molecules from patent publication US12540115B2, “Inhibitors of phospholipid synthesis and methods of use” (priority 2019, dated 2026).

Assay [1] concerns mouse hepatocellular carcinoma lines. The assay can be described thus: Cancer cell proliferation, MTT assay on mouse hepatocellular carcinoma lines. Type of assay: cell-based. The settings on record: treated 1-3 days, dosage range 1 mM to 0.1 nM; vs untreated (DMSO). As to the method: (§1) FIG. 1-26 illustrate various exemplary GPAT inhibitors that suppress cancer cell proliferation. With reference to FIG. 1-26: BCL stands for Burkitt lymphoma line, all experiments on BCL were done using trypan blue and cell counts. Cells are treated 1-3 days with dosage range 1 mM to 0.1 nM. RCC stands for renal cell carcinoma, all experiments on RCC were in vivo experiments. Tumors are treated with dosage range 0.1 mg/kg to 100 mg/kg for X days, wherein X ranges from 7 to 30 days. All experiments are done in MTT assay on mouse hepatocellular carcinoma lines that are treated 1-3 days with the dosage range from 1 mM to 0.1 nM. The bar in each of FIGS. 1-26 entitled “Untreated” refers to a sample without an exemplary GPAT inhibitor compound, diluted in DMSO solvent.

The test system of assay [2] is Burkitt lymphoma line. Nature of the assay: Burkitt lymphoma line proliferation, trypan blue and cell counts. The settings on record: treated 1-3 days, dosage range 1 mM to 0.1 nM. Type of assay: cell-based. As to the method:
as §1

Assay [3] concerns the target glycerol 3-phosphate acyltransferase (GPAT). The settings on record: read-out: IC50, inhibitor of glycerol 3-phosphate acyltransferase (GPAT); cited from earlier work.
Assay [4] deals with diet-induced obese mice. The following applies: cited from earlier work.
Assay [5] relates to MYC-induced tumors. The assay can be described thus: FSG67 in MYC-induced tumors, xenograft and primary mouse models. Type of assay: in vivo. The source says:
We present a comprehensive overview of how the MYC oncogene controls lipogenesis to promote tumorigenesis. We find that MYC globally regulates the expression of key genes and their resulting proteins and metabolites in lipogenesis for human and murine cell lines as well as for transgenic mouse models. […] Desorption electrospray ionization mass spectrometric imaging (DESI-MSI) from tissue samples of several conditional transgenic mouse models identified in vivo metabolic changes in simple fatty acids and in complex phospholipids induced by MYC. […] Strong correlation between these in situ changes and elevation of gene expressions of cytidinediphosphate diacylglycerol pathway genes as well as fatty acid elongase genes were found. By administering FSG67, which inhibits GPAT, MYC-induced tumorigenesis was blocked, metabolic changes were suppressed, and tumors regressed in xenograft and primary mouse models.

The subject of assay [6] is renal cell carcinoma. Nature of the assay: Renal cell carcinoma (RCC) in vivo tumor experiments. Further details: species or system mice. The settings on record: dosage range 0.1 mg/kg to 100 mg/kg for 7 to 30 days. As for the experimental part:
as §1
MYC RCC mice were generated by crossing FVB/N-Tg(tetO-MYC)28aBop/J mice for MYC with Tg(Ggt1-tTA) #Agoc or (GGT-tTA) for kidney specificity. MYC HCC mice were generated by crossing FVB/N-Tg(tetO-MYC)28aBop/J mice for MYC with Tg(Cebpb-tTA)5Bjd or (LAP-tTA) for liver specificity. All parental lines had undergone at least 10 generations of backcrossing. MYC RCC and MYC HCC mice were bred on doxycycline until 4 weeks of age, when doxycycline was replaced with water for at least 2 weeks for tumorigenesis depending on the experiment described in the patent. […]

On to `CCCCCCCCCS(=O)(=O)Nc1ccccc1S(C)(=O)=O` [BTX 4171], for which the cancer cell proliferation result in assay [1] was “suppresses cancer cell proliferation”. `CCCCCCCCCS(=O)(=O)Nc1ccccc1F` [BTX 1101]: in assay [1], the cancer cell proliferation result was “suppresses cancer cell proliferation”. As for `CCCCCCCCCS(=O)(=O)Nc1ccccc1Br` [BTX 2121], in assay [1], the cancer cell proliferation result is reported as “suppresses cancer cell proliferation”. On to `CCCCS(=O)(=O)Nc1ccccc1-c1nnn[nH]1` [BTX 982], for which, in assay [2], the “Burkitt lymphoma cell proliferation” value is “suppresses Burkitt lymphoma cell proliferation”. Regarding `NC1=NS(=O)(=O)c2ccccc21` [BTX 291002], the cancer cell proliferation entry in assay [1] is listed as “suppresses cancer cell proliferation”. In the case of `CCCCCCCCCS(=O)(=O)Nc1ccccc1C(=O)O` [FSG67, 2-(Nonylsulfonamido)benzoic acid], the IC50 in assay [3] is 24 µM. Besides, in assay [4], the “body weight and adiposity” value is “decrease body weight and adiposity”; the “energy utilization as fatty acid oxidation” value is “enhance energy utilization as fatty acid oxidation”; the food intake result was “reduce food intake”; the hepatic steatosis result is “reverse hepatic steatosis”. Also, the insulin sensitivity result in assay [4] is recorded as “enhance insulin sensitivity”. Also, in assay [5], the MYC-induced tumorigenesis entry is reported as “blocked”, the metabolic changes entry is “suppressed” and the “tumors (regression)” value is “regressed”.

Consider `CCCCCCCCCS(=O)(=O)Nc1ccccc1Cl` [BTX 2111], for which, in assay [1], the cancer cell proliferation result was “suppresses cancer cell proliferation”.

For the molecule `CS(=O)(=O)Nc1ccccc1-c1nnn[nH]1` [BTX 281], the cancer cell proliferation entry in assay [1] is “suppresses cancer cell proliferation”. Turning to `N#Cc1ccccc1S(N)(=O)=O` [BTX 491001], the cancer cell proliferation entry in assay [1] is reported as “suppresses cancer cell proliferation”. Regarding `CCOCCS(=O)(=O)Nc1ccccc1C(=O)O` [BTX 108], the cancer cell proliferation result in assay [1] is “suppresses cancer cell proliferation”. For `CCCCCCCCCS(=O)(=O)Nc1ccccc1C(=O)NS(=O)(=O)C(F)(F)F` [BTX 9141], in assay [2], the “Burkitt lymphoma cell proliferation” value was “suppresses Burkitt lymphoma cell proliferation”.

With `O=C(O)c1ccccc1NS(=O)(=O)Cc1ccccc1` [BTX 1010], the cancer cell proliferation entry in assay [1] is “suppresses cancer cell proliferation”. Regarding `CS(=O)(=O)Nc1ccccc1C(=O)O` [BTX 601], in assay [1], the cancer cell proliferation entry is listed as “suppresses cancer cell proliferation”. Same read-out and setting: the value for `CCCCCCCCCS(=O)(=O)Nc1ccccc1C(=O)O` [BTX 100] was “suppresses cancer cell proliferation”; that for `CCCCCCCCCS(=O)(=O)N1C(=O)OCc2ccccc21` [BTX 2191] was “suppresses cancer cell proliferation”. Turning to `CCCCCCCCCNS(=O)(=O)c1ccccc1C(=O)O` [BTX 9161], the cancer cell proliferation entry in assay [1] is recorded as “suppresses cancer cell proliferation”. As to `CC(C)S(=O)(=O)Nc1ccccc1C(=O)O` [BTX 205], the “renal cell carcinoma cell proliferation” value in assay [6] was “suppresses renal cell carcinoma cell proliferation”. `CC(C)CS(=O)(=O)Nc1ccccc1C(=O)O` [BTX 106]: in assay [2], the “Burkitt lymphoma cell proliferation” value was “suppresses Burkitt lymphoma cell proliferation”. With `CS(=O)(=O)Nc1ccccc1C#N` [BTX 671], the cancer cell proliferation entry in assay [1] is listed as “suppresses cancer cell proliferation”.

Regarding `CCCCCCCCCS(=O)(=O)Nc1ccccc1S(N)(=O)=O` [BTX 8151], the “Burkitt lymphoma cell proliferation” value in assay [2] is “suppresses Burkitt lymphoma cell proliferation”. Regarding `CCCCCCCCCN1C(=N)c2ccccc2S1(=O)=O` [BTX 19102], the cancer cell proliferation entry in assay [1] was “suppresses cancer cell proliferation”. `CS(=O)(=O)Nc1ccccc1CO` [BTX 931]: in assay [2], the “Burkitt lymphoma cell proliferation” value is on record as “suppresses Burkitt lymphoma cell proliferation”.

As to `CCCCCCCCCS(=O)(=O)Nc1ccccc1CO` [BTX 83009], in assay [1], the cancer cell proliferation result is “suppresses cancer cell proliferation”.
